Assay results reported in patent US7741354B2, “Inhibitors of glutaminyl cyclase” (Probiodrug AG, priority 2006, dated 2010).

Target: hQC (Homo sapiens, UniProt Q16769)
Test: Fluorometric (fluorescent) assay of hQC inhibition, IC50
Assay type: biochemical
Conditions: hQC inhibition; read-out: IC50
Protocol: All compounds were immediately tested regarding their activity as hQC inhibitors.
The purity of the compounds was determined by HPLC-MS. The IC50 value against hQC was measured using the fluorescent assay.
All measurements were performed with a BioAssay Reader HTS-7000Plus for microplates (Perkin Elmer) at 30° C. QC activity was evaluated fluorometrically using H-Gln-βNA. The samples consisted of 0.2 mM fluorogenic substrate, 0.25 U pyroglutamyl aminopeptidase (Unizyme, Horsholm, Denmark) in 0.2 M Tris/HCl, pH 8.0 containing 20 mM EDTA and an appropriately diluted aliquot of QC in a final volume of 250 μl. Excitation/emission wavelengths were 320/410 nm. The assay reactions were initiated by addition of glutaminyl cyclase. QC activity was determined from a standard curve of β-naphthylamine under assay conditions. One unit is defined as the amount of QC catalyzing the formation of 1 μmol pGlu-βNA from H-Gln-βNA per minute under the described conditions.
In a second fluorometric assay, QC was activity determined using H-Gln-AMC as substrate. Reactions were carried out at 30° C. utilizing the NOVOStar reader for microplates (BMG labtechnologies). The samples consisted of varying concentrations of the fluorogenic substrate, 0.1 U pyroglutamyl aminopeptidase (Qiagen) in 0.05 M Tris/HCl, pH 8.0 containing 5 mM EDTA and an appropriately diluted aliquot of QC in a final volume of 250 μl. Excitation/emission wavelengths were 380/460 nm. The assay reactions were initiated by addition of glutaminyl cyclase. QC activity was determined from a standard curve of 7-amino-4-methylcoumarin under assay conditions. The kinetic data were evaluated using GraFit sofware.
For inhibitor testing, the sample composition was the same as described above, except of the putative inhibitory compound added. For a rapid test of QC-inhibition, samples contained 4 mM of the respective inhibitor and a substrate concentration at 1 KM. For detailed investigations of the inhibition and determination of Ki-values, influence of the inhibitor on the auxiliary enzymes was investigated first. […] The inhibitory constant was evaluated by fitting the set of progress curves to the general equation for competitive inhibition using GraFit software.

hQC, sequence (Q16769 29-361): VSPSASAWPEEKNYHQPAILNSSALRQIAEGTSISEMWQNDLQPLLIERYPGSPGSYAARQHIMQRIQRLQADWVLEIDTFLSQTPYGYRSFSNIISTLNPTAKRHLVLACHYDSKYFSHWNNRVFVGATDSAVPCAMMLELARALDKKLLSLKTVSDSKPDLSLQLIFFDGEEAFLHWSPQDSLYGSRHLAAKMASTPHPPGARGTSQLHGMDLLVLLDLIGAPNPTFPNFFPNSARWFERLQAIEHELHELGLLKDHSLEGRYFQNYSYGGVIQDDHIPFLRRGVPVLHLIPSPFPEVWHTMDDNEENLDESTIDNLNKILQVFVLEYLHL

Structure (SMILES)	IC50 [µM]
CC(C)(C)OC(=O)Cn1nnnc1C(Nc1ccc2[nH]cnc2c1)c1ccc(-c2ccccn2)cc1 (stereo not drawn) [compound 212, {5-[(1H-Benzoimidazol-5-ylamino)-(4-pyridin-2-yl-phenyl)-methyl]-tetrazol-1-yl}-acetic acid tert-butyl ester]	2.2
OCc1ccc(C(Nc2ccc3[nH]cnc3c2)c2nnnn2Cc2ccc(Cl)cc2)o1 (stereo not drawn) [compound 121, (5-{(1H-Benzoimidazol-5-ylamino)-[1-(4-chloro-benzyl)-1H-tetrazol-5-yl]-methyl}-furan-2-yl)-methanol]	4.9
CCOC(=O)C1CCCCC1n1nnnc1C(Nc1ccc2[nH]cnc2c1)c1ccc(CC)cc1 (stereo not drawn) [compound 168]	5.8
Clc1ccc(Cn2nnnc2C(Nc2ccc3[nH]cnc3c2)c2ccc(Cl)cc2)cc1 (stereo not drawn) [compound 136, (1H-Benzoimidazol-5-yl)-[[1-(4-chloro-benzyl)-1H-tetrazol-5-yl]-(4-chloro-phenyl)-methyl]-amine]	4
CC1(C)OCC(Cn2nnnc2C(Nc2ccc3[nH]cnc3c2)c2ccc3c(c2)OCO3)O1 (stereo not drawn) [compound 138, {Benzo[1,3]dioxol-5-yl-[1-(2,2-dimethyl-[1,3]dioxolan-4-ylmethyl)-1H-tetrazol-5-yl]-methyl}-(1H-benzoimidazol-5-yl)-amine]	9.4
O=C1CCCN1CCCn1nnnc1C(Nc1ccc2[nH]cnc2c1)c1ccc(Br)cc1 (stereo not drawn) [compound 194, 1-(3-{5-[(1H-Benzoimidazol-5-ylamino)-(4-bromo-phenyl)-methyl]-tetrazol-1-yl}-propyl)-pyrrolidn-2-one]	8.5
Cc1cc(C(Nc2ccc3[nH]cnc3c2)c2nnnn2CC2COC(C)(C)O2)cc(C)c1O (stereo not drawn) [compound 165, 4-{(1H-Benzoimidazol-5-ylamino)-[1-(2,2-dimethyl-[1,3]dioxolan-4-ylmethyl)-1H-tetrazol-5-yl]-methyl}-2,6-dimethyl-phenol]	5.8

Now from value to molecule:

IC50 [µM]	Structure (SMILES)
4	CC(C)(C)c1ccc(-n2nnnc2C(Nc2ccc3[nH]cnc3c2)c2ccc3nsnc3c2)cc1 (stereo not drawn) [compound 117]
8.5	CC1(C)OCC(Cn2nnnc2C(Nc2ccc3[nH]cnc3c2)c2ccc(Cl)c([N+](=O)[O-])c2)O1 (stereo not drawn) [compound 171, (1H-Benzoimidazol-5-yl)-{(4-chloro-3-nitro-phenyl)-[1-(2,2-dimethyl-[1,3]dioxolan-4-ylmethyl)-1H-tetrazol-5-yl]-methyl}-amine]
3.1	O=[N+]([O-])c1cc(C(Nc2ccc3[nH]cnc3c2)c2nnnn2CC2CCCO2)ccc1Cl (stereo not drawn) [compound 146]
9.4	c1ccc(C(c2ccccc2)n2nnnc2C(Nc2ccc3[nH]cnc3c2)c2cccnc2)cc1 (stereo not drawn) [compound 158, [(1-Benzhydryl-1H-tetrazol-5-yl)-pyridin-3-yl-methyl]-(1H-benzoimidazol-5-yl)-amine]
2.2	Brc1cc(Br)cc(C(Nc2ccc3[nH]cnc3c2)c2nnnn2CCc2cccs2)c1 (stereo not drawn) [compound 177, (1H-Benzoimidazol-5-yl)-{(3,5-dibromo-phenyl)-[1-(2-thiophen-2-yl-ethyl)-1H-tetrazol-5-yl]-methyl}-amine]
2.2	Brc1ccc(C(Nc2ccc3[nH]cnc3c2)c2nnnn2-c2ccccc2OCc2ccccc2)cc1 (stereo not drawn) [compound 203, (1H-Benzoimidazol-5-yl)-[[1-(2-benzyloxy-phenyl)-1H-tetrazol-5-yl]-(4-bromo-phenyl)-methyl]-amine]
3.1	COc1ccccc1C(Nc1ccc2[nH]cnc2c1)c1nnnn1Cc1ccccc1Cl (stereo not drawn) [compound 153]
1.3	O=[N+]([O-])c1cc(C(Nc2ccc3[nH]cnc3c2)c2nnnn2Cc2ccccc2Cl)ccc1Cl (stereo not drawn) [compound 148, (1H-Benzoimidazol-5-yl)-[[1-(2-chloro-benzyl)-1H-tetrazol-5-yl]-(4-chloro-3-nitro-phenyl)-methyl]-amine]

Same assay, conditions: purified compound from preparative synthesis; fluorescent assay; read-out: IC50 hQC

IC50 [µM]	Structure (SMILES)
0.45	Clc1ccc(Cn2nnnc2C(NCCCn2ccnc2)c2ccc3[nH]ccc3c2)cc1 (stereo not drawn) [Compound 6, [[1-(4-Chloro-benzyl)-1H-tetrazol-5-yl]-(1H-indol-5-yl)-methyl]-(3-imidazol-1-yl-propyl)-amine]
0.584	Cc1ccc(O)c(C(NCCCn2ccnc2)c2nnnn2Cc2ccc(Cl)cc2)c1 (stereo not drawn) [Compound 3, 2-[[1-(4-Chloro-benzyl)-1H-tetrazol-5-yl]-(3-imidazol-1-yl-propylamino)-methyl]-4-methyl-phenol]

Same assay, conditions: read-out: IC50

Structure (SMILES)	IC50 [µM]
COCCCn1nnnc1C(NCCCn1ccnc1)c1cc(O)ccc1C (stereo not drawn) [compound 33, 3-{(3-Imidazol-1-yl-propylamino)-[1-(3-methoxy-propyl)-1H-tetrazol-5-yl]-methyl}-4-methyl-phenol]	4
Clc1ccc(C(NCCCn2ccnc2)c2nnnn2C[C@@H]2CCCO2)cc1Cl (stereo partly drawn) [compound 10]	4
COCCCn1nnnc1C(NCCCn1ccnc1)c1ccc(Cl)c(Cl)c1 (stereo not drawn) [compound 32, {(3,4-Dichloro-phenyl)-[1-(3-methoxy-propyl)-1H-tetrazol-5-yl]-methyl}-(3-imidazol-1-yl-propyl)-amine]	7.6
Cc1ccc(O)c(C(NCCCn2ccnc2)c2nnnn2C[C@@H]2CCCO2)c1 (stereo partly drawn) [compound 11, 2-((3-Imidazol-1-yl-propylamino)-{1-[(S)-1-(tetrahydro-furan-2-yl)methyl]-1H-tetrazol-5-yl}-methyl)-4-methyl-phenol]	3.1
Cc1ccc(O)c(C(NCCCn2ccnc2)c2nnnn2C(C)(C)C)c1 (stereo not drawn) [compound 59, 2-[(1-tert-Butyl-1H-tetrazol-5-yl)-(3-imidazol-1-yl-propylamino)-methyl]-4-methyl-phenol]	1.3
Cc1ccc(O)c(C(NCCCn2ccnc2)c2nnnn2Cc2ccc(Cl)cc2)c1 (stereo not drawn) [Compound 3, 2-[[1-(4-Chloro-benzyl)-1H-tetrazol-5-yl]-(3-imidazol-1-yl-propylamino)-methyl]-4-methyl-phenol]	0.4
c1ccc2c(C(Nc3ccc4[nH]cnc4c3)c3nnnn3CC3CCCO3)csc2c1 (stereo not drawn) [compound 78]	1.3

Second part, the molecule after the results:

IC50 [µM]	Structure (SMILES)
4.9	c1nc2cc(NC(c3ccc4nsnc4c3)c3nnnn3CC3CCCO3)ccc2[nH]1 (stereo not drawn) [compound 105]
4.9	C/C=C/C=C/C(Nc1ccc2[nH]cnc2c1)c1nnnn1CC1COC(C)(C)O1 (stereo not drawn) [compound 92, (1H-Benzoimidazol-5-yl)-{(2E,4E)-1-[1-(2,2-dimethyl-[1,3]dioxolan-4-ylmethyl)-1H-tetrazol-5-yl]-hexa-2,4-dienyl}-amine]
6.7	CC1=CCCC[C@@H]1C(NCCCn1ccnc1)c1nnnn1C1CCCC1 (stereo partly drawn) [compound 27, [(1-Cyclopentyl-1H-tetrazol-5-yl)-((S)-2-methyl-cyclohex-2-enyl)-methyl]-(3-imidazol-1-yl-propyl)-amine]
8.5	COCCn1nnnc1C(NCCCn1ccnc1)c1cc(C)ccc1O (stereo not drawn) [compound 39, 2-{(3-Imidazol-1-yl-propylamino)-[1-(2-methoxy-ethyl)-1H-tetrazol-5-yl]-methyl}-4-methyl-phenol]
4.9	CN(C)CCn1nnnc1C(NCCCn1ccnc1)c1ccc2cccc(O)c2n1 (stereo not drawn) [compound 37, 2-[[1-(2-Dimethylamino-ethyl)-1H-tetrazol-5-yl]-(3-imidazol-1-yl-propylamino)-methyl]-quinolin-8-ol]
3.1	COCCn1nnnc1C(NCCCn1ccnc1)c1ccc2cccc(O)c2n1 (stereo not drawn) [compound 40, 2-{(3-Imidazol-1-yl-propylamino)-[1-(2-methoxy-ethyl)-1H-tetrazol-5-yl]-methyl}-quinolin-8-ol]
0.4	Clc1ccc(Cn2nnnc2C(NCCCn2ccnc2)c2ccc3[nH]ccc3c2)cc1 (stereo not drawn) [Compound 6, [[1-(4-Chloro-benzyl)-1H-tetrazol-5-yl]-(1H-indol-5-yl)-methyl]-(3-imidazol-1-yl-propyl)-amine]
5.8	c1ccc2nc(C(NCCCn3ccnc3)c3nnnn3C3CC3)ccc2c1 (stereo not drawn) [compound 70, [(1-Cyclopropyl-1H-tetrazol-5-yl)-quinolin-2-yl-methyl]-(3-imidazol-1-yl-propyl)-amine]
6.7	CC(C)(C)Cn1nnnc1C(NCCCn1ccnc1)[C@@H]1CCC=CO1 (stereo partly drawn) [compound 67]
